Drawing on ChEMBL document CHEMBL1131866, “Stereoisomeric acylamidomorpholinium carnitine analogues: selective inhibitors of carnitine palmitoyltransferase I and II” (Bioorg Med Chem Lett, 1999), this text covers inhibition for one molecule.

The target of this assay is T1, Carnitine O-palmitoyltransferase 2, mitochondrial (Rattus norvegicus) (UniProt P18886).
T1 sequence (whole entry): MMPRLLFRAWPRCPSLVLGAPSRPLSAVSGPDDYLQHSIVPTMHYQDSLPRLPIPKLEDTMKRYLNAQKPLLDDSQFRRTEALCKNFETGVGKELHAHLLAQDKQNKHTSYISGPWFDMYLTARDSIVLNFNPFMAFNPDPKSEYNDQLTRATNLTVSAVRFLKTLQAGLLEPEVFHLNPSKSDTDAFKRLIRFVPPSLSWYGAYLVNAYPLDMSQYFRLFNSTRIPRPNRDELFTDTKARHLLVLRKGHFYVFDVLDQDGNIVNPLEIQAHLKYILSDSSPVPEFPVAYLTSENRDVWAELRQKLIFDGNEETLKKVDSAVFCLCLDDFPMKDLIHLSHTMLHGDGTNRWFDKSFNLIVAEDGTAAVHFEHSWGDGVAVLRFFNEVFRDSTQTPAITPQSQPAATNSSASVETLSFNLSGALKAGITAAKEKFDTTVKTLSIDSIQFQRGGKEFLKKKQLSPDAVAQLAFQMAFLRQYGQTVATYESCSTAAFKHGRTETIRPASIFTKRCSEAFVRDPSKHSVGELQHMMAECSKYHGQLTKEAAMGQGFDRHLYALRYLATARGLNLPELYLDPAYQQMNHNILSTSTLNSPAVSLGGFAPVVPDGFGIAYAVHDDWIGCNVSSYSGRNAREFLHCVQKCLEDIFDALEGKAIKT
In words: Inhibitory activity against rat-liver mitochondrial Carnitine palmitoyl transferase II. Conditions: concentration not given here.

SMILES strings stand for the structures.

The term inhibition denotes the share of the control response that was lost under treatment. `CCCCCCCCCCCCCC(=O)NC[C@H]1C[N+](C)(C)C[C@@H](CC(=O)[O-])O1` registered an inhibition of 41%.
